Measured values: patent publication US9790496B2, “Microrna compounds and methods for modulating MIR-21 activity” (Regulus Therapeutics, Inc., priority 2011, dated 2017)
“And” between values parts separate entries of the source, which are not always exact repeats. Equal entries are not always repeated.

Assays:
[1] = tested on: collagen 1A1 and collagen 3A1 expression in kidney, unilateral ureteral obstruction (UUO) model; test: UUO model of kidney fibrosis: kidney collagen 1A1 and collagen 3A1 expression by real-time PCR; type: in vivo, mice; conditions: for Collagen 1A1 (Normalized Expression), individual animal / Collagen 3A1 (Normalized Expression), individual animal: UUO, 20 mg/kg at days -3, -1, +5 (prophylactic), kidney at day 11, real-time PCR normalized to GAPDH then sham, 20 mg/kg; for reduction in collagen expression (in words): meta-analysis of repeated UUO studies, 20 mg/kg at days -3, -1, +5
Description: Unilateral ureteral obstruction (UUO) is a well-established experimental model of renal injury leading to interstitial fibrosis, and thus is used as an experimental model that is reflective of human kidney disease. UUO is induced by surgically ligating a single ureter. As fibrosis is characterized by an increase in collagen, the presence and extent of kidney fibrosis may be determined by measuring collagen content. Both collagen 1A1 (Col 1A1) and collagen 3A1 (Col 3A1) are measured to assess collagen content. Kidney fibrosis may be visualized by staining tissue samples with picro-sirius red to detect increases in collagen content. Kidney fibrosis may also be observed by measuring the amount of hydroxyproline, which is a major component of collagen, in a sample.
The cEt-containing anti-miR-21 compounds found to be active in the luciferase assay were tested in the UUO model of kidney fibrosis. 25919 comprising 2′-MOE and 2′-fluoro modifications is known to inhibit miR-21 activity in vivo and was included as a positive control. Groups of 8 animals each were treated as follows: UUO only, UUO with PBS, or UUO with anti-miR-21 compound. Relative to the day of the UUO procedure, PBS or anti-miR-21 compound was administered at days −3, −1, and +5. Anti-miR-21 compounds were administered at a dose of 20 mg/kg. As the anti-miR compounds were administered prior to the UUO procedure, this dosing regimen is considered a prophylactic treatment. At day 11, animals were sacrificed and kidney was isolated for measurement of collagen expression. Collagen expression was measured by real-time PCR and normalized first to GAPDH and then to the sham control animals. […]

miR-21 = miR-21 luciferase sensor assay in Hela cells; type: cell-based; conditions: Hela cells
Description: The compounds were assessed for miR-21 inhibitory activity in a luciferase assay. A microRNA luciferase sensor construct was engineered using pGL3-MCS2 (Promega). The construct was introduced into Hela cells to test the ability of anti-miR compounds to inhibit activity of miR-21. In this assay, miR-21 present in the Hela cells binds to its cognate site(s) in the luciferase sensor construct, and suppresses luciferase expression. When the appropriate anti-miR is introduced into the cells, it binds to miR-21 and relieves suppression of luciferase expression. Thus, in this assay anti-miRs that are effective inhibitors of miR-21 expression will cause an increase in luciferase expression.
Day 1: Hela cells (ATCC), stably transfected with a luciferase construct engineered to contain a sequence complementary of miR-21, were seeded in T-170 flasks (BD Falcon) at 3.5*10^6 cells/flask. Hela cells were grown in Dulbecco's Modified Eagle Medium with High Glucose (Invitrogen).
Day 2: Each flask of Hela cells was transfected with 0.5 ug of a phRL sensor plasmid (Promega) expressing Renilla to be used in normalization. Hela cells were transfected using 20 ul Lipofectamine 2000/flask (Invitrogen). After 4 hours of transfection, cells were washed with PBS and trypsinized. Hela cells were plated at 40 k/well in 24 well plates (BD Falcon) and left overnight.
Day 3: Hela cells were transfected with anti-miRs using Lipofectin (Invitrogen) at 2.5 ul Lipofectin/100 nM ASO/ml Opti-MEM I Reduced Serum Medium (Invitrogen) for 4 hours. After ASO transfection, Hela cells were refed with Dulbecco's Modified Eagle Medium with High Glucose (Invitrogen).
Day 4: Hela cells are passively lysed and luciferase activity measured using the Dual-Luciferase Reporter Assay System (Promega).
The luciferase assay was performed to test the ability of anti-miRs with the nucleoside patterns described herein to inhibit the activity of miR-21. Results were compared to a ‘mock’ treatment, in which cells received no anti-miR treatment. The experiment was repeated and results of two experimental replicates are shown in the following Table B, as the luciferase value normalized to beta-galactosidase activity.
The luciferase assay was performed as described herein to test the ability of anti-miRs in Table F to inhibit the activity of miR-21. Results were compared to a ‘mock’ treatment, in which cells received no anti-miR treatment. The experiment was repeated and results of two experimental replicates are shown in the following Table D, as fold change in luciferase value relative to the mock treatment.

[2] = Ex vivo liver homogenate stability assay (HPLC-TOF MS)
[3] = 4 nM oligonucleotide, mock transfection 50
[4] = 20 nM oligonucleotide, mock transfection 47
[5] = .16 nM oligonucleotide, mock transfection 45
[6] = .8 nM oligonucleotide, mock transfection 33
[7] = 5 μM in liver homogenate (50 mg tissue per ml), 24 hours at 37° C.
[8] = 100 nM oligonucleotide, mock transfection 40
[9] = 500 nM oligonucleotide, mock transfection 39

Compound: CCCCC1=NC2(CCCC2)C(=O)N1Cc1ccc(-c2ccccc2-c2nnn[nH]2)cc1 [irbesartan, reference compound]
- reduction in Col3a1 expression (in words) ([1]; UUO comparison with irbesartan, 25070 s.c. 20 mg/kg days -5, -2, +3, irbesartan perorally daily days 0-7, day 10): statistically significant reductions
- reduction in Col1A1 expression relative to saline-treated animals (in words) ([1]; UUO comparison with irbesartan, 25070 s.c. 20 mg/kg days -5, -2, +3, irbesartan perorally daily days 0-7, day 10, p<0.05 one-way ANOVA): did not yield a statistically significant reduction

Compound: AECSAETECSAEGETECSTEGEAEUSAEAEGECSTEAE (ACATCAGTCTGATAAGCTA; S-cEt/2'-MOE, phosphorothioate, chemistry not fully specified) [Compound 25072]
- Collagen 1A1 (Normalized Expression), individual animal [1]: 96.2 and 85.7 and 127.4 and 100.0 and 159.2 and 120.5 and 108.0
- Collagen 3A1 (Normalized Expression), individual animal [1]: 69.4 and 54.5 and 58.8 and 69.2 and 93.8 and 65.8 and 46.9
- reduction in collagen expression (in words) [1]: did not consistently demonstrate a reduction in collagen expression
- luciferase value normalized to beta-galactosidase activity (miR-21; [3]): 76
- luciferase value normalized to beta-galactosidase activity (miR-21; [4]): 86
- luciferase value normalized to beta-galactosidase activity (miR-21; [5]): 40
- luciferase value normalized to beta-galactosidase activity (miR-21; [6]): 49
- inhibition of miR-21 in the luciferase assay (in words) (miR-21): demonstrated inhibition of miR-21 in a dose-dependent manner

Compound: AECSATCSAGTCSTGAUSAAGCSTAS (ACATCAGTCTGATAAGCTA; 2'-MOE and cEt modifications) [Compound 25923]
- compound lacking the 3'-terminal nucleoside [2, 7]: about 18%
- compound present as the full-length compound [2, 7]: About 68%
- ex vivo (liver) N %↓ ([2]; 5 μM oligonucleotide in liver homogenate (50 mg tissue per ml), 24 hours, 37° C., decrease of full-length compound): 17%
- ex vivo (liver) % N-1 ([2]; 5 μM oligonucleotide in liver homogenate, 24 hours, 37° C., compound lacking one terminal nucleoside): 13%
- ex vivo (liver) % Endo ([2]; 5 μM oligonucleotide in liver homogenate, 24 hours, 37° C., endonuclease products): 2-3%

Compound: Ae^MeCAST^MeCAGST^MeCTGASTASAGS^MeCTAe (ACATCAGTCTGATAAGCTA; all C 5-methyl, all phosphorothioate, sugars by position not given here; further chemistry not fully specified) [Compound 25071]
- luciferase value normalized to beta-galactosidase activity (miR-21; [3]): 50
- luciferase value normalized to beta-galactosidase activity (miR-21; [4]): 63
- luciferase value normalized to beta-galactosidase activity (miR-21; [8]): 53
- luciferase value normalized to beta-galactosidase activity (miR-21; [9]): 42
- luciferase value normalized to beta-galactosidase activity (miR-21; [5]): 48
- luciferase value normalized to beta-galactosidase activity (miR-21; [6]): 36

Compound: TE^MeCAACSATCSAGTCSTGAUSAAGCSTAE (TCAACATCAGTCTGATAAGCTA; listed as DNA, chemistry not fully specified) [Compound 25082]
- Collagen 1A1 (Normalized Expression), individual animal [1]: 122.2 and 188.3 and 102.5 and 67.6 and 40.6 and 44.1 and 73.8 and 94.7
- Collagen 3A1 (Normalized Expression), individual animal [1]: 62.9 and 78.9 and 82.2 and 43.8 and 32.6 and 34.3 and 75.8 and 62.5
- reduction in collagen expression (in words) [1]: did not consistently demonstrate a reduction in collagen expression
- luciferase value normalized to beta-galactosidase activity (miR-21; [5]): 70
- luciferase value normalized to beta-galactosidase activity (miR-21; [6]): 89
- inhibition of miR-21 in the luciferase assay (in words) (miR-21): demonstrated inhibition of miR-21 in a dose-dependent manner

Compound: TE^MeCEAEAECSAETECSAEGETECSTEGEAEUSAEAEGECSTEAE (TCAACATCAGTCTGATAAGCTA; listed as DNA, chemistry not fully specified) [Compound 25068]
- Collagen 1A1 (Normalized Expression), individual animal [1]: 84.7 and 75.1 and 85.5 and 89.1 and 90.4 and 125.8 and 124.4
- Collagen 3A1 (Normalized Expression), individual animal [1]: 64.8 and 56.2 and 47.4 and 76.2 and 57.0 and 63.0 and 59.6
- luciferase value normalized to beta-galactosidase activity (miR-21; [3]): 64
- luciferase value normalized to beta-galactosidase activity (miR-21; [4]): 86
- luciferase value normalized to beta-galactosidase activity (miR-21; [8]): 97
- luciferase value normalized to beta-galactosidase activity (miR-21; [5]): 45
- luciferase value normalized to beta-galactosidase activity (miR-21; [6]): 54
- inhibition of miR-21 in the luciferase assay (in words) (miR-21): demonstrated inhibition of miR-21 in a dose-dependent manner

Compound: Te^MeCASA^MeCAST^MeCAGST^MeCTGASTAAGS^MeCTAe (antisense TCAACATCAGTCTGATAAGCTA; all C 5-methyl, all phosphorothioate, sugars by position not given here; further chemistry not fully specified) [Compound 25067]
- luciferase value normalized to beta-galactosidase activity (miR-21; [3]): 43
- luciferase value normalized to beta-galactosidase activity (miR-21; [4]): 41
- luciferase value normalized to beta-galactosidase activity (miR-21; [8]): 30
- luciferase value normalized to beta-galactosidase activity (miR-21; [9]): 42
- luciferase value normalized to beta-galactosidase activity (miR-21; [5]): 38
- luciferase value normalized to beta-galactosidase activity (miR-21; [6]): 23
